From PubChem BioAssay AID1259407 (Chemical Carcinogenesis Research Information System (CCRIS), 2018)
The source made the active and inactive calls. No rule for the calls is given here.

Tested on: CCRIS mutagenicity, Ames/micronucleus/aberration tests
Experiment: CCRIS mutagenicity studies
[1] = Test System: AMES SALMONELLA TYPHIMURIUM, Strain/Indicator: TA98, Metabolic Activation: NONE, Method: STANDARD PLATE
[2] = Test System: AMES SALMONELLA TYPHIMURIUM, Strain/Indicator: TA100, Metabolic Activation: NONE, Method: STANDARD PLATE
[3] = Test System: AMES SALMONELLA TYPHIMURIUM, Strain/Indicator: TA102, Metabolic Activation: NONE, Method: STANDARD PLATE
[4] = Test System: AMES SALMONELLA TYPHIMURIUM, Strain/Indicator: TA1535, Metabolic Activation: NONE, Method: STANDARD PLATE
[5] = Test System: AMES SALMONELLA TYPHIMURIUM, Strain/Indicator: TA1537, Metabolic Activation: NONE, Method: STANDARD PLATE
[6] = Test System: AMES SALMONELLA TYPHIMURIUM, Strain/Indicator: TA100, Metabolic Activation: RAT, LIVER, S-9, AROCLOR 1254, Method: STANDARD PLATE
[7] = Test System: AMES SALMONELLA TYPHIMURIUM, Strain/Indicator: TA102, Metabolic Activation: RAT, LIVER, S-9, AROCLOR 1254, Method: STANDARD PLATE
[8] = Test System: AMES SALMONELLA TYPHIMURIUM, Strain/Indicator: TA98, Metabolic Activation: RAT, LIVER, S-9, AROCLOR 1254, Method: STANDARD PLATE
[9] = Test System: AMES SALMONELLA TYPHIMURIUM, Strain/Indicator: TA1535, Metabolic Activation: RAT, LIVER, S-9, AROCLOR 1254, Method: STANDARD PLATE
[10] = Test System: AMES SALMONELLA TYPHIMURIUM, Strain/Indicator: TA1537, Metabolic Activation: RAT, LIVER, S-9, AROCLOR 1254, Method: STANDARD PLATE

Nc1c(S(=O)(=O)O)cc(Nc2cccc(S(=O)(=O)CCOS(=O)(=O)O)c2)c2c1C(=O)c1ccccc1C2=O
mutagenic call (Test System: MOUSE LYMPHOMA, Strain/Indicator: L5178Y (TK+/TK-), Metabolic Activation: NONE, Method: SUSPENSION/PLATE): active; positive

[Cl][Sn]([c]1ccccc1)([c]1ccccc1)[c]1ccccc1
mutagenic call (Test System: AMES SALMONELLA TYPHIMURIUM, Strain/Indicator: TA98, Metabolic Activation: NONE, Method: SUSPENSION/PLATE): inactive; negative | mutagenic call (Test System: AMES SALMONELLA TYPHIMURIUM, Strain/Indicator: TA100, Metabolic Activation: NONE, Method: SUSPENSION/PLATE): inactive; negative

CCOC(=O)C1(CCCCCCOCc2cccs2)CO1 (stereo not given)
mutagenic call [1]: active; positive | mutagenic call (Test System: AMES SALMONELLA TYPHIMURIUM, Strain/Indicator: TA98, Metabolic Activation: S-9, Method: STANDARD PLATE): active; positive | mutagenic call [2]: inactive; negative | mutagenic call (Test System: AMES SALMONELLA TYPHIMURIUM, Strain/Indicator: TA100, Metabolic Activation: S-9, Method: STANDARD PLATE): inactive; negative | mutagenic call [3]: inactive; negative | mutagenic call (Test System: AMES SALMONELLA TYPHIMURIUM, Strain/Indicator: TA102, Metabolic Activation: S-9, Method: STANDARD PLATE): inactive; negative | mutagenic call [4]: inactive; negative | mutagenic call (Test System: AMES SALMONELLA TYPHIMURIUM, Strain/Indicator: TA1535, Metabolic Activation: S-9, Method: STANDARD PLATE): inactive; negative | mutagenic call [5]: inactive; negative | mutagenic call (Test System: AMES SALMONELLA TYPHIMURIUM, Strain/Indicator: TA1537, Metabolic Activation: S-9, Method: STANDARD PLATE): inactive; negative

CC(=O)O[C@H]1CC[C@@]2(C)C(=CC[C@H]3[C@@H]4CC[C@H]([C@H](C)CCCC(C)C)[C@@]4(C)CC[C@@H]32)C1
mutagenic call (Test System: AMES SALMONELLA TYPHIMURIUM, Strain/Indicator: TA97A, Metabolic Activation: NONE, Method: STANDARD PLATE): inactive; negative | mutagenic call (Test System: AMES SALMONELLA TYPHIMURIUM, Strain/Indicator: TA97A, Metabolic Activation: RAT, LIVER, S-9, AROCLOR 1254, Method: STANDARD PLATE): inactive; negative | mutagenic call [2]: inactive; negative | mutagenic call [6]: inactive; negative | mutagenic call [3]: inactive; negative | mutagenic call [7]: inactive; negative | mutagenic call (Test System: AMES SALMONELLA TYPHIMURIUM, Strain/Indicator: TA104, Metabolic Activation: NONE, Method: STANDARD PLATE): inactive; negative | mutagenic call (Test System: AMES SALMONELLA TYPHIMURIUM, Strain/Indicator: TA104, Metabolic Activation: RAT, LIVER, S-9, AROCLOR 1254, Method: STANDARD PLATE): inactive; negative

CCOc1ccccc1OCC1CNCCO1 (stereo not given)
mutagenic call [1]: inactive; negative | mutagenic call [8]: inactive; negative | mutagenic call [2]: inactive; negative | mutagenic call [6]: inactive; negative | mutagenic call [4]: inactive; negative | mutagenic call [9]: inactive; negative | mutagenic call [5]: inactive; negative | mutagenic call [10]: inactive; negative

Fc1cccc2ccc3ncccc3c12
mutagenic call (Test System: AMES SALMONELLA TYPHIMURIUM, Strain/Indicator: TA100, Metabolic Activation: RAT, LIVER, S-9, PHENOBARBITAL AND 5,6-BENZOFLAVONE, Method: PREINCUBATION): active; positive

c1ccc2c(c1)ccc1nc3c(ccc4ccccc43)cc12
mutagenic call (Test System: AMES SALMONELLA TYPHIMURIUM, Strain/Indicator: TA100, Metabolic Activation: RAT, LIVER, S-9, PHENOBARBITAL AND 5,6-BENZOFLAVONE, Method: STANDARD PLATE): active; positive

Oc1cccc2cc3c4ccccc4c4ccccc4c3cc12
mutagenic call (Test System: AMES SALMONELLA TYPHIMURIUM, Strain/Indicator: TA100, Metabolic Activation: RAT, LIVER, S-9, AROCLOR 1254, Method: PREINCUBATION): active; positive

CN(C)C(=O)c1nc2n(n1)-c1ccc(Cl)cc1C(c1ccccc1Cl)=NC2
mutagenic call [1]: inactive; negative | mutagenic call [8]: inactive; negative | mutagenic call [2]: inactive; negative | mutagenic call [6]: inactive; negative | mutagenic call [3]: inactive; negative | mutagenic call [7]: inactive; negative | mutagenic call [4]: inactive; negative | mutagenic call [9]: inactive; negative | mutagenic call [5]: inactive; negative | mutagenic call [10]: inactive; negative | mutagenic call (Test System: E. COLI, Strain/Indicator: WP2 UVRA, Metabolic Activation: NONE, Method: STANDARD PLATE): inactive; negative | mutagenic call (Test System: E. COLI, Strain/Indicator: WP2 UVRA, Metabolic Activation: RAT, LIVER, S-9, AROCLOR 1254, Method: STANDARD PLATE): inactive; negative

CN1CCN(c2ccc3nc(CCc4ccc5nc(-c6ccc(N(CCCl)CCCl)cc6)[nH]c5c4)[nH]c3c2)CC1
mutagenic call [1]: inactive; negative | mutagenic call [2]: inactive; negative | mutagenic call [3]: active; positive

C1CCC(C(CC2CCCCN2)C2CCCCC2)CC1 (stereo not given)
mutagenic call (Test System: AMES SALMONELLA TYPHIMURIUM, Strain/Indicator: TA100(FR1), Metabolic Activation: NONE, Method: STANDARD PLATE): inactive; negative | mutagenic call (Test System: AMES SALMONELLA TYPHIMURIUM, Strain/Indicator: TA100(FR1), Metabolic Activation: RAT, LIVER, S-9, PHENOBARBITAL AND 3-METHYLCHOLANTHRENE, Method: STANDARD PLATE): inactive; negative | mutagenic call [2]: inactive; negative | mutagenic call (Test System: AMES SALMONELLA TYPHIMURIUM, Strain/Indicator: TA100, Metabolic Activation: RAT, LIVER, S-9, PHENOBARBITAL AND 3-METHYLCHOLANTHRENE, Method: STANDARD PLATE): inactive; negative | mutagenic call (Test System: CHINESE HAMSTER V-79, Strain/Indicator: V-79/6-THIOGUANINE, Metabolic Activation: NONE): inactive; negative | mutagenic call (Test System: CHINESE HAMSTER V-79, Strain/Indicator: V-79/6-THIOGUANINE, Metabolic Activation: RAT, LIVER, HEPATOCYTES): active; positive | mutagenic call (Test System: CHINESE HAMSTER V-79, Strain/Indicator: V-79/OUABAIN, Metabolic Activation: NONE): inactive; negative | mutagenic call (Test System: CHINESE HAMSTER V-79, Strain/Indicator: V-79/OUABAIN, Metabolic Activation: RAT, LIVER, HEPATOCYTES): inactive; negative

CC12CCC(=O)NC1=CCC1C2CCC2(C)C(OC(=O)CCCc3ccc(N(CCCl)CCCl)cc3)CCC12 (stereo not given)
mutagenic call [1]: inactive; negative | mutagenic call [8]: inactive; negative | mutagenic call [2]: active; positive | mutagenic call [6]: active; positive | mutagenic call [3]: inactive; negative | mutagenic call [7]: inactive; negative | mutagenic call [4]: active; positive | mutagenic call [9]: active; positive | mutagenic call [5]: inactive; negative | mutagenic call [10]: inactive; negative
